# Data from patent US20060257543A1, “Molecules comprising linked organic moieties as flavor modifiers for comestible compositions” (priority 2005, published 2006).
# Target: T1, hT1R2/hT1R3 sweet receptor expressed in an HEK293 cell line (Homo sapiens, UniProt Q7RTX0+Q8TE23)
# T1 construct: expressed in transfected cells; host or cells: HEK293 derivative, clone S-9
# T1 sequence (Q8TE23 20-839): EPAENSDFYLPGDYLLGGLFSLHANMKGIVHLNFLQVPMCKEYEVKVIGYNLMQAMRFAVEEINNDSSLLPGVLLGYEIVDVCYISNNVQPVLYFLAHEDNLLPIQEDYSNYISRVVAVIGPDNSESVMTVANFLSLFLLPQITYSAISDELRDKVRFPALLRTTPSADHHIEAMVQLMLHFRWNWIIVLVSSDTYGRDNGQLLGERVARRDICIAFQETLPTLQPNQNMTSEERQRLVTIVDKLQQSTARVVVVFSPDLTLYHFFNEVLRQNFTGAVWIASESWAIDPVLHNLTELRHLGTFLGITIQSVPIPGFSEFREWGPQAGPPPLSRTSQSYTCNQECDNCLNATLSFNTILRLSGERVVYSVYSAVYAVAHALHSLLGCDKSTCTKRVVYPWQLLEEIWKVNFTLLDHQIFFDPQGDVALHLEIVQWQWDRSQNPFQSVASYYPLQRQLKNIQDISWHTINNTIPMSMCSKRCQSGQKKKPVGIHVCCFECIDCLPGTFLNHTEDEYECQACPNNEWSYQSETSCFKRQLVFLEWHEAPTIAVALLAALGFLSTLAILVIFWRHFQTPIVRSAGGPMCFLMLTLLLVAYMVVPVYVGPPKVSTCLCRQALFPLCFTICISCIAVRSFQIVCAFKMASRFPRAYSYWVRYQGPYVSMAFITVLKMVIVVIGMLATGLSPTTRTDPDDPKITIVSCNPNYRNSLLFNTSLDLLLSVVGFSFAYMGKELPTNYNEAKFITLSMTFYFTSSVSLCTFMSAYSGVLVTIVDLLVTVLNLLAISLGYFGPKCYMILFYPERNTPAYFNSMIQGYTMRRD
# T1 sequence (Q7RTX0 21-852): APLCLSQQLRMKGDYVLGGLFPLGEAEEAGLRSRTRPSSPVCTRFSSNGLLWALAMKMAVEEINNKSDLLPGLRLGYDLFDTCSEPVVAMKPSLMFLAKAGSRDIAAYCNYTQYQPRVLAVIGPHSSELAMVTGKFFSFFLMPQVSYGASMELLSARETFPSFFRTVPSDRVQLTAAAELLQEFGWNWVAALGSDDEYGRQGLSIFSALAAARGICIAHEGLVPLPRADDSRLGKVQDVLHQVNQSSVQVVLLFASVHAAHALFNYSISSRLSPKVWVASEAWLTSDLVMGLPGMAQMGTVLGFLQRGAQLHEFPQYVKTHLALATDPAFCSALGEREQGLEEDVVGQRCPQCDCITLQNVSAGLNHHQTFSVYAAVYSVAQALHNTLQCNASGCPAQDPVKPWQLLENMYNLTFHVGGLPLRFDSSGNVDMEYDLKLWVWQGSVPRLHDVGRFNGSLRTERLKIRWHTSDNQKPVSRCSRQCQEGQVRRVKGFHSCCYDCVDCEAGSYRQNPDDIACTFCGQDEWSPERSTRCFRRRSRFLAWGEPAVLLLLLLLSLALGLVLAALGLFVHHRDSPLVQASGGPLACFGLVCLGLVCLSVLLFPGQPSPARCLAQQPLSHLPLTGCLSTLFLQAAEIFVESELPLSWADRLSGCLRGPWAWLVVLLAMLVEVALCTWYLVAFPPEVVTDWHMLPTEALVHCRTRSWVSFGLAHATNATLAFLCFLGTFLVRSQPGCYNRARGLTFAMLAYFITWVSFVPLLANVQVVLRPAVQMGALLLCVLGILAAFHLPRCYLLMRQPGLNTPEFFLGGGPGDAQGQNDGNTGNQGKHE
# Test: In vitro hT1R2/hT1R3 sweet taste receptor activation assay (FLIPR, dose response)
# Format: cell-based
# Settings: read-out: Sweet EC50
# From the text: An HEK293 cell line derivative (see Chandrashekar, J., Mueller, K. L., Hoon, M. A., Adler, E., Feng, L., Guo, W., Zuker, C. S., Ryba, N. J.,. Cel,l 2000, 100, 703-711.) that stably expresses Gα15 and hT1R2/hT1R3 (see Li, X., Staszewski, L., Xu, H., Durick, K., Zoller, M., Adler, E. Proc Natl Acad Sci USA 2002, 99, 4692-4696, and PCT Publication No. WO 03/001876) was used to identify compounds with sweet taste enhancing properties. These references are hereby incorporated herein by reference for their methods of preparing and maintaing the cell lines discussed below, and for their methods for screeing compounds that inhibit the biological receptors.
# Compounds covered in this document were initially selected based on their activity on the hT1R2/hT1R3—HEK293-Gα15 cell line (Li, et al. vide supra). Activity was determined using an automated fluorometric imaging assay on a FLIPR instrument (Fluorometric Intensity Plate Reader, Molecular Devices, Sunnyvale, Calif.) (designated FLIPR assay). Cells from one clone (designated S-9 cells) were seeded into 384-well plates (at approximately 50,000 cells per well) in a medium containing DMEM Low Glucose (Invitrogen, Carlsbad, Calif.), 10% dialyzed fetal bovine serum (Invitrogen, Carlsbad, Calif.), 100 Units/ml Penicillin G, and 100 μg/ml Streptomycin (Invitrogen, Carlsbad, Calif.) (Li, et al. vide supra) see also World Patent No. WO 03/001876 A2). S-9 cells were grown for 24 hours at 37° C. S-9 cells were then loaded with the calcium dye Fluo-3AM (Molecular Probes, Eugene, Oreg.), 4 μM in a phosphate buffered saline (D-PBS) (Invitrogen, Carlsbad, Calif.), for 1 hour at room temperature. After replacement with 25 μl D-PBS, stimulation was performed in the FLIPR instrument and at room temperature by the addition of 25 μl D-PBS supplemented with different stimuli at concentrations corresponding to twice the desired final level. Receptor activity was quantified by determining the maximal fluorescence increases (using a 480 nm excitation and 535 nm emission) after normalization to basal fluorescence intensity measured before stimulation.
# (§1) For dose-responses analysis, stimuli were presented in duplicates at 10 different concentrations ranging from 60 nM to 30 μM. Activities were normalized to the response obtained with 400 mM D-fructose, a concentration that elicits maximum receptor response. EC50s were determined using a non-linear regression algorithm (using a Senomyx, Inc. software), where the Hill slope, bottom asymptotes and top asymptotes were allow to vary. Identical results were obtained when analyzing the dose-response data using commercially available software for non-linear regression analysis such as GraphPad PRISM (San Diego, Calif.).
row,SMILES,EC50
1,S=C(NCc1ccoc1)Nc1ccc2c(c1)OCO2 [Example B40],11.6 µM
2,CC(C)Oc1ccc(NC(=S)NCc2ccncc2)cc1 [Example B41],14.2 µM
3,O=S(=O)(NCc1ccncc1)c1ccc(F)cc1 [Example B42],6.5 µM
4,Cc1cc(C)c(S(=O)(=O)NCc2ccncc2)c(C)c1 [Example B43],0.76 µM
5,CCOc1ccc(S(=O)(=O)NCc2ccncc2)cc1 [Example B44],0.93 µM
6,COc1c(S(=O)(=O)NCc2ccncc2)ccc(Cl)c1Cl [Example B45],2.18 µM
7,CCCCOc1ccc(S(=O)(=O)Nc2cccnc2)cc1 [Example B46],2.19 µM
8,COc1ccc(S(=O)(=O)Nc2ccc3nn(C)cc3c2)cc1 [Example B47],2.94 µM
9,COC(=O)COc1ccc(S(=O)(=O)Nc2ccc3c(c2)OCCO3)cc1 [Example B48],7.97 µM
10,COc1ccc(Cl)cc1S(=O)(=O)NCc1ccco1 [Example B49],8 µM

# Target: T2, hT1R1/hT1R3 umami receptor expressed in an HEK293 cell line (Homo sapiens, UniProt Q7RTX0+Q7RTX1)
# T2 construct: expressed in transfected cells; host or cells: HEK293 derivative, clone I-17, expression induced with mifepristone
# T2 sequence (Q7RTX1 21-841): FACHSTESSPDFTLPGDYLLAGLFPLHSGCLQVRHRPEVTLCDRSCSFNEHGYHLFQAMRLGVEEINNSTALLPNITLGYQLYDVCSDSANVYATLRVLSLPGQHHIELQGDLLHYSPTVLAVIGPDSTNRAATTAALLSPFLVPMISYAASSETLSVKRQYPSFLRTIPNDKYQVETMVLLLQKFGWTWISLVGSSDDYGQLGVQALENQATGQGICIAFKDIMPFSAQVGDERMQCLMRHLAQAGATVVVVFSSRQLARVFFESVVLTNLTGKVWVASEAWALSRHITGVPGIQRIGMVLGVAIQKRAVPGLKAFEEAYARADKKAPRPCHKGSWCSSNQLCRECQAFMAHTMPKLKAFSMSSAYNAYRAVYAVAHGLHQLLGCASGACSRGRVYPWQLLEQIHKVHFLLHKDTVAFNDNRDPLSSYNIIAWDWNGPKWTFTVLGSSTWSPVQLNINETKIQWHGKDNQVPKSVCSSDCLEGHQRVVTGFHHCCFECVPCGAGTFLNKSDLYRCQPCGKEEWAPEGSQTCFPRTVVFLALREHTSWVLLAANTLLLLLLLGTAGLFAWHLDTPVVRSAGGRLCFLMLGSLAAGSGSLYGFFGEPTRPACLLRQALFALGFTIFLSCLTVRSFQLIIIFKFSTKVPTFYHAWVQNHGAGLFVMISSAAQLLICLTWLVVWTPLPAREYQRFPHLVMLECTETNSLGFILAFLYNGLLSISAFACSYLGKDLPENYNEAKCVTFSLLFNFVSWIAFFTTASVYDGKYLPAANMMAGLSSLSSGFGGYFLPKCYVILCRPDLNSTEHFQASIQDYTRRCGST
# T2 sequence (Q7RTX0 21-852): T1 sequence (Q7RTX0 21-852)
# Test: In vitro hT1R1/hT1R3 umami taste receptor activation assay (FLIPR, dose response)
# Format: cell-based
# Settings: read-out: EC50 for activation of a hT1R1/hT1R3 umami receptor expressed in an HEK293 cell line
# From the text: In order to identify new savory flavoring agents and enhancers, including compounds with savory agonist and enhancer activities (dual activity), the tastant compounds of Formula (I) were screened in primary assays and secondary assays including compound dose response and enhancement assay. In a primary assay for potential ability to modulate umami taste, tastant compounds of Formula (I) that can be either savory flavoring agents in their own right or flavor enhancers of MSG are identified and scores of their activities are given as percentage of the maximum MSG intensity (%). In compound dose response, an EC50 is calculated to reflect the potency of the compound as a savory agonist or enhancer.
# An HEK293 cell line derivative (see e.g., Chandrashekar, et al., Cell (2000) 100: 703-711) which stably expresses Gα15 and hT1R1/hT1R3 under an inducible promoter (see WO 03/001876 A2) was used to identify compounds with savory tasting properties.
# Compounds disclosed in this application were initially selected based on their activity on the hT1R1/hT1R3-HEK293-Gα15 cell line. Activity was determined using an automated fluorometric imaging assay on a FLIPR instrument (Fluorometric Intensity Plate Reader, Molecular Devices, Sunnyvale, Calif.) (designated FLIPR assay). Cells from one clone (designated clone I-17) were seeded into 384-well plates (at approximately 48,000 cells per well) in a medium containing Dulbecco's modified Eagle's medium (DMEM) supplemented with GlutaMAX (Invitrogen, Carlsbad, Calif.), 10% dialyzed fetal bovine serum (Invitrogen, Carlsbad, Calif.), 100 Units/ml Penicillin G, 100 μg/ml Streptomycin (Invitrogen, Carlsbad, Calif.) and 60 pM mifepristone (to induce expression of hT1R1/hT1R3, (see WO 03/001876 A2). I-17 cells were grown for 48 hours at 37° C. I-17 cells were then loaded with the calcium dye Fluo-3AM (Molecular Probes, Eugene, Oreg.), 4 μM in a phosphate buffered saline (D-PBS) (Invitrogen, Carlsbad, Calif.), for 1.5 hours at room temperature. After replacement with 25 μl D-PBS, stimulation was performed in the FLIPR instrument and at room temperature by the addition of 25 μl D-PBS supplemented with different stimuli at concentrations corresponding to twice the desired final level. Receptor activity was quantified by determining the maximal fluorescence increases (using a 480 nm excitation and 535 nm emission) after normalization to basal fluorescence intensity measured before stimulation.
# as §1, with “1.5” for “60”, “60” for “400”, “monosodium glutamate,” for “D-fructose,”, “EC50s (concentration of compound that causes 50% activation of receptor)” for “EC50s”, “algorithm,” for “algorithm (using a Senomyx, Inc. software),”
row,SMILES,EC50
1,CCOc1ccc(NC(=S)NCCc2ccccn2)cc1 [Example 2],0.55 µM

# Same assay, conditions: read-out: Umami EC50
row,SMILES,EC50
1,S=C(NCCc1ccccn1)Nc1ccccc1OCc1ccccc1 [Example A1],1.31 µM
2,CC(C)c1ccc(NC(=S)NCCc2ccccn2)cc1 [Example A2],1.43 µM
3,CC(C)(C)c1ccc(NC(=S)NCCc2ccccn2)cc1 [Example A3],1.92 µM
4,CCc1ccc(NC(=S)NCCc2ccccn2)cc1 [Example A4],1.37 µM
5,CSc1ccc(NC(=S)NCCc2ccccn2)cc1 [Example A5],3.26 µM
6,COc1ccc(C(=O)CC(SCO)c2ccc(Cl)cc2)cc1 (stereo not shown) [Example A10],6.05 µM
7,CCOC(=O)COc1ccc(S(=O)(=O)Nc2ccc3c(c2)OCO3)cc1 [Example A14],14.4 µM
8,CSc1ccccc1NC(=S)NC1CCCCC1C (stereo not shown) [Example A15],3 µM
9,CC(C)(C)c1ccc(NC(=S)NCc2ccccn2)cc1 [Example A16],3.71 µM
10,CCCCC(C)NC(=S)NC1CCCc2ccccc21 (stereo not shown) [Example A18],7.88 µM
11,CC1CCCCC1NC(=S)Nc1ccc2c(c1)OCO2 (stereo not shown) [Example A19],13.4 µM
12,Cc1cc(CNC(=S)Nc2ccc(OC(C)C)cc2)no1 [Example A20],11 µM
13,CC(C)Oc1ccc(NC(=S)NCc2ncc[nH]2)cc1 [Example A21],14.5 µM
14,O=C(OCc1ccccn1)c1ccc(COc2cccc3ccccc23)cc1 [Example A22],3.87 µM
